Measured values published in patent US8669233B2, “Combination of compounds for treating or preventing skin diseases” (Galderma Research & Development, priority 2009, dated 2014).

What was measured:
[1] = system: arachidonic acid-induced mouse ear edema; test: Arachidonic acid-induced mouse ear edema test, single topical application; type: in vivo, Balb/c mice; settings: 4% arachidonic acid
Method: Evaluation of the Anti-Inflammatory Activity of Ivermectin and of Brimonidine after a Single Topical Application in the Arachidonic Acid-Induced Mouse Ear Edema Test on Balb/c Mice
Arachidonic acid is dissolved in a mixture of THF/methanol at 4%.
Ivermectin is dissolved in the solution of arachidonic acid (AA) and tested at the concentration of 1%.
20 μl of the solution are applied to the internal surface of the right ear.
The thickness of the ear is measured at T+1 h, T+2 h and T+4 h.
FIG. 1 represents the average measurement of the thickness of the ear edema, i.e. the average measurement of the thickness of the ear after treatment, from which is subtracted the average measurement of the thickness of the ear obtained with the control (nontreated) group, this being after treatment with 4% arachidonic acid ( ? ), 1% ivermectin (□), 0.2% brimonidine ( ? ), and the combination of ivermectin and brimonidine ( ? ).

[2] = system: TPA-induced mouse ear edema; test: TPA-induced mouse ear edema test, single topical application; type: in vivo, Balb/c mice; settings: TPA 0.01%, T+6 h; for reduction in the ear edema (TPA): single topical application
Method: The test compounds are diluted in the TPA solution. […] Brimonidine is added at the concentration of 0.2%. […] FIG. 2 represents the average measurement of the ear edema thickness as a function of the dose of test compound as %, i.e. the average measurement of the ear thickness after treatment, from which is subtracted the average measurement of the thickness of the ear obtained with the control (nontreated) group, […]

COc1ccc2c(c1)c(CC(=O)O)c(C)n2C(=O)c1ccc(Cl)cc1 [Indomethacin]
inhibition of the ear edema caused by arachidonic acid ([1]; indomethacin at 5%, topical, Balb/c mice): 95%

Brc1c(NC2=NCCN2)ccc2nccnc12 [brimonidine]
reduction of the mouse ear edema (TPA) ([2]; brimonidine alone 0.2%): 50%

CCCCC(=O)O[C@]1(C(=O)CO)[C@@H](C)C[C@H]2[C@@H]3CCC4=CC(=O)C=C[C@]4(C)[C@@]3(F)[C@@H](O)C[C@@]21C [β-methasone valerate (BMV), β-methasone valerate]
inhibition of the mouse ear edema (TPA) ([2]; BMV at 0.01%): 89%

Ivermectin
reduction of the ear edema caused by arachidonic acid ([1]; ivermectin alone 1%, single topical application): 56%
reduction in the ear edema (TPA) ([2]; ivermectin 0.3%): 57%
reduction in the ear edema (TPA) ([2]; ivermectin 1%): 90%
